Paper PMC6447857, “Structural Study of Agmatine Iminohydrolase From Medicago truncatula, the Second Enzyme of the Agmatine Route of Putrescine Biosynthesis in Plants” (Frontiers in Plant Science, 2019)

Target: T1, MtAIH (Medicago truncatula, UniProt G7JT50)
T1 construct: gene AIH; ORF from codon 11 (leaf cDNA), pMCSG68, N-terminal His6-tag removed by TEV, Ser-Asn-Ala linker kept; E. coli BL21 Gold; homodimer (81 kDa by MALS)
Test: X-ray crystallography (cocrystallization), […] A
Type: binding
Conditions: 10 mM ligand, Morpheus Screen, pH 6.5; active site; reaction product analog; bound in three of four chains

T1 sequence (G7JT50 11-374): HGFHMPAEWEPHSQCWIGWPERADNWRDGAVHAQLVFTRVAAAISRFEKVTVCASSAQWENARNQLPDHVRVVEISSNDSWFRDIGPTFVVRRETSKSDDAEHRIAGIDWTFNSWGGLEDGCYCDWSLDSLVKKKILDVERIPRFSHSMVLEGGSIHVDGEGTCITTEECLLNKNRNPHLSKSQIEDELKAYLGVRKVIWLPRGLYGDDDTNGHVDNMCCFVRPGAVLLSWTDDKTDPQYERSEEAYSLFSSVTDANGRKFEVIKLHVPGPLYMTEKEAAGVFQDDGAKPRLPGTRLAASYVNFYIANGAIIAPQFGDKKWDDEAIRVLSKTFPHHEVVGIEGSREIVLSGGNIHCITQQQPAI

For `NCCCCCC(N)=O` [AHX, 6-aminohexanamide], the “X-ray crystallography (cocrystallization), 2.20 A” value was “The MtAIH-AHX structure was obtained by cocrystallization and presents the bound AHX”.
